Laboratory results published in article PMC6270845, “Fluorescent Probes for Insect Ryanodine Receptors: Candidate Anthranilic Diamides” (Molecules, 2014).
“And” between values parts separate entries of the source, which are not always exact repeats. Equal values may be shown once. Read-outs that look alike come from different tables or passages of the source.

Tests used:
[1] = target: T1, house fly thoracic muscle RyR (Musca domestica, UniProt A0A9J7DBA3); parameters: method as in PMID 22856329; details: read-out: Inhibition of [3H]Chlo binding (IC50), reported value; cited from earlier work
[2] = target: T1, house fly thoracic muscle RyR; parameters: method as in PMID 22856329; details: read-out: Stimulation of [3H]Ry binding (EC50), reported value; cited from earlier work
Plutella larvae = assay: Insecticidal activity, leaf-dip bioassay; details: fourth instar larvae, cabbage leaf-dip, mortality after 96 h
[3] = target: T1, house fly thoracic muscle RyR; assay: Stimulation of [3H]Ry binding in Musca RyR radioligand assay; details: Musca muscle membrane, 1 nM [3H]Ry, 2 h at 37 °C
Protocol: (§1) [^3H]Ry (95 Ci/mmol, Perkin-Elmer Life Sciences, Boston, MA, USA) and [^3H]Chlo (78 Ci/mmol) were used in RyR binding assays with house fly thorax muscle membranes as reported earlier. Adults emerging from pupae obtained from Benzon Research (Carlisle, PA, USA) were used to collect the thoraces for membrane preparation. The following two buffers were used: (A) 10 μM phenylmethanesulfonyl fluoride, 0.8% bovine serum albumin, and 303 mM sucrose in 20 mM Tris-maleate, pH 7.0; and (B) 0.8 mM CaCl2, 2 mM ATP·Mg^2+ salt, and 1.5 M KCl in 10 mM Hepes, pH 7.4. Incubation mixtures were prepared by sequential addition to culture tubes of 200 μL of buffer B, 200 μL of buffer A containing thorax muscle membranes (200 μg protein) and then ethanol (5 μL) containing [^3H]Ry or [^3H]Chlo to give a final radioligand concentration of 1 nM. Finally, test compounds were added in 5 μL ethanol to give the specified concentrations of Fluor-Cl and Fluor-CN. Following incubation for 2 h at 37 °C, the mixtures were filtered through GF/B filters (Whatman, presoaked in ice-cold washing buffer) immediately after dilution with 5 mL of ice-cold washing buffer (150 mM KCl, 10 mM Hepes, pH 7.4). Each assay tube was further rinsed twice with 5 mL of ice-cold washing buffer, and the rinses were passed through the same filter. […] Binding data were analyzed and plotted by GraphPad Prism 5.0. […]

[4] = target: T1, house fly thoracic muscle RyR; assay: Inhibition of [3H]Chlo binding in Musca RyR radioligand assay; details: Musca muscle membrane, 1 nM [3H]Chlo, 2 h at 37 °C
Protocol: as §1

| Compound | IC50 [1] | EC50 [2] | LC50 (95%CL) (Plutella larvae) | EC50 [3] | IC50 [4] |
| --- | --- | --- | --- | --- | --- |
| CNC(=O)c1cc(C#N)cc(C)c1NC(=O)c1cc(Br)nn1-c1ncccc1Cl [Cyan, cyantraniliprole] | 0.006 to 0.014 µM | 0.003 to 0.015 µM | 0.061(0.035–0.086) ppm |  |  |
| C#CCNC(=O)c1cc(C#N)cc(C)c1NC(=O)c1cc(Br)nn1-c1ncccc1Cl [Prop-CN, 3-bromo-N-(4-cyano-2-methyl-6-(prop 2-ynylcarbamoyl)phenyl)-1-(3-chloropyridin-2-yl)-1H-pyrazole-5-carboxamide] |  |  | 0.34(0.24–0.43) ppm |  |  |
| CNC(=O)c1cc(Cl)cc(C)c1NC(=O)c1cc(Br)nn1-c1ncccc1Cl [Chlo, chlorantraniliprole] | 0.006 to 0.014 µM | 0.003 to 0.015 µM | 0.033(0.006–0.059) ppm |  |  |
| C#CCNC(=O)c1cc(Cl)cc(C)c1NC(=O)c1cc(Br)nn1-c1ncccc1Cl [Prop-Cl, 3-Bromo-N-(4-chloro-2-methyl-6-(prop-2-ynylcarbamoyl)phenyl)-1-(3-chloropyridin-2-yl)-1H-pyrazole-5-carboxamide] |  |  | 0.080(0.024–0.152) ppm |  |  |
| Cc1cc(C(F)(C(F)(F)F)C(F)(F)F)ccc1NC(=O)c1cccc(I)c1C(=O)NC(C)(C)CS(C)(=O)=O [Flu, flubendiamide, reference compound] |  |  | 0.056(0.037–0.068) ppm |  |  |
| Cc1cc(C#N)cc(C(=O)NCc2cn(-c3cc4ccc(O)cc4oc3=O)nn2)c1NC(=O)c1cc(Br)nn1-c1ncccc1Cl [Fluor-CN, 3-Bromo-1-(3-chloropyridin-2-yl)-N-(4-cyano-2-((1-(7-hydroxy-2-oxo-2H-chromen-3-yl)-1H-1,2,3-triazol-4-yl)methylcarbamoyl)-6-methylphenyl)-1H-pyrazole-5-carboxamide] |  |  | 7.57(4.57–11.77) ppm | 0.005 to 0.007 µM and 0.005 µM | 0.034 to 0.039 µM and 0.039 µM |
